The supplement of paper PMC10307832

Experiments:
Experiment in all cases: relative viability (nuclei count vs DMSO), 5 days (fraction); higher = more cells survive
ChaGo-K-1 = tested on: ChaGo-K-1
How it was run: (§1)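 For relative viability, nuclei counts in treated wells were divided by those in vehicle wells. Lung cancer cell lines had been pin-tool dosed in 1536-well plates the day after seeding and cultured for 5 days, then fixed and stained in one step (final 0.05% Triton X-100, 1% formaldehyde, 1 ug/ml Hoechst) and imaged at 4×. Doses were one drug alone or a fixed anchor-drug dose plus five library-drug doses (not always all listed) in √10 steps, and values are duplicate-plate medians.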

EKVX = tested on: EKVX
How it was run: as §1

LC-2-ad = tested on: LC-2-ad
How it was run: as §1

NCI-H1623 = tested on: NCI-H1623
How it was run: as §1

NCI-H1648 = tested on: NCI-H1648
How it was run: as §1

NCI-H1666 = tested on: NCI-H1666
How it was run: as §1

A549 = tested on: A549
How it was run: as §1

Calu-6 = tested on: Calu-6
How it was run: as §1

EBC-1 = tested on: EBC-1
How it was run: as §1

IA-LM = tested on: IA-LM
How it was run: as §1

NCI-H1299 = tested on: NCI-H1299
How it was run: as §1

NCI-H1703 = tested on: NCI-H1703
How it was run: as §1

`Cc1cn(-c2cc(NC(=O)c3ccc(C)c(Nc4nccc(-c5cccnc5)n4)c3)cc(C(F)(F)F)c2)cn1` [Nilotinib] + COc1cccc2cc(-c3nc([C@H]4CC[C@H](C(=O)O)CC4)n4ncnc(N)c34)[nH]c12 [OSI-027] (partner 0.5 µM) gave a relative viability (ChaGo-K-1; first compound 0.001 µM) of 0.49, a relative viability (ChaGo-K-1; first compound 0.003162 µM) of 0.643 and a relative viability (ChaGo-K-1; first compound 0.01 µM) of 0.485. It also gave a relative viability (ChaGo-K-1; first compound 0.03162 µM) of 0.471, a relative viability (ChaGo-K-1; first compound 0.1 µM) of 0.274 and a relative viability (EKVX; first compound 0.001 µM) of 0.541. The relative viability (EKVX; first compound 0.003162 µM) was 0.719, the relative viability (EKVX; first compound 0.01 µM) was 0.904 and the relative viability (EKVX; first compound 0.03162 µM) was 0.665. For the same molecule, the relative viability (EKVX; first compound 0.1 µM) was 0.671, the relative viability (LC-2-ad; first compound 0.001 µM) was 0.739 and the relative viability (LC-2-ad; first compound 0.003162 µM) was 0.909. It also gave a relative viability (LC-2-ad; first compound 0.01 µM) of 0.795, a relative viability (LC-2-ad; first compound 0.03162 µM) of 0.728 and a relative viability (LC-2-ad; first compound 0.1 µM) of 0.472. It also gave a relative viability (NCI-H1623; first compound 0.001 µM) of 0.395, a relative viability (NCI-H1623; first compound 0.003162 µM) of 0.422 and a relative viability (NCI-H1623; first compound 0.01 µM) of 0.444. The relative viability (NCI-H1623; first compound 0.03162 µM) was 0.432, the relative viability (NCI-H1623; first compound 0.1 µM) was 0.423 and the relative viability (NCI-H1648; first compound 0.003162 µM) was 0.257. It also gave a relative viability (NCI-H1648; first compound 0.01 µM) of 0.257, a relative viability (NCI-H1648; first compound 0.03162 µM) of 0.256 and a relative viability (NCI-H1648; first compound 0.1 µM) of 0.253. For the same molecule, the relative viability (NCI-H1666; first compound 0.001 µM) was 0.823, the relative viability (NCI-H1666; first compound 0.003162 µM) was 0.846 and the relative viability (NCI-H1666; first compound 0.01 µM) was 0.879. It also gave a relative viability (NCI-H1666; first compound 0.03162 µM) of 0.753 and a relative viability (NCI-H1666; first compound 0.1 µM) of 0.899.
With `Cc1cn(-c2cc(NC(=O)c3ccc(C)c(Nc4nccc(-c5cccnc5)n4)c3)cc(C(F)(F)F)c2)cn1` [Nilotinib] + COc1cc2c(Oc3ccc(NC(=O)C4(C(=O)Nc5ccc(F)cc5)CC4)cc3F)ccnc2cc1OCCCN1CCOCC1 [Foretinib] (partner 0.25 µM) the relative viability (A549; first compound 0.001 µM) was 1.03, the relative viability (A549; first compound 0.01 µM) was 1.15 and the relative viability (A549; first compound 0.1 µM) was 0.95. The relative viability (Calu-6; first compound 0.001 µM) was 0.726, the relative viability (Calu-6; first compound 0.003162 µM) was 0.897 and the relative viability (Calu-6; first compound 0.01 µM) was 0.934. It also gave a relative viability (Calu-6; first compound 0.03162 µM) of 0.644, a relative viability (Calu-6; first compound 0.1 µM) of 0.801 and a relative viability (ChaGo-K-1; first compound 0.001 µM) of 0.799. The relative viability (ChaGo-K-1; first compound 0.003162 µM) was 1.09, the relative viability (ChaGo-K-1; first compound 0.01 µM) was 1.03 and the relative viability (ChaGo-K-1; first compound 0.03162 µM) was 0.582. It also gave a relative viability (ChaGo-K-1; first compound 0.1 µM) of 0.756, a relative viability (EBC-1; first compound 0.001 µM) of 0.0869 and a relative viability (EBC-1; first compound 0.003162 µM) of 0.101. The relative viability (EBC-1; first compound 0.01 µM) was 0.105, the relative viability (EBC-1; first compound 0.1 µM) was 0.112 and the relative viability (EKVX; first compound 0.001 µM) was 0.726. The relative viability (EKVX; first compound 0.003162 µM) was 1, the relative viability (EKVX; first compound 0.01 µM) was 1.43 and the relative viability (EKVX; first compound 0.03162 µM) was 0.512. The relative viability (EKVX; first compound 0.1 µM) was 0.187, the relative viability (IA-LM; first compound 0.001 µM) was 1.14 and the relative viability (IA-LM; first compound 0.003162 µM) was 1.23. For the same molecule, the relative viability (IA-LM; first compound 0.01 µM) was 1.33, the relative viability (IA-LM; first compound 0.1 µM) was 1.17 and the relative viability (LC-2-ad; first compound 0.001 µM) was 0.912. It also gave a relative viability (LC-2-ad; first compound 0.003162 µM) of 1.08, a relative viability (LC-2-ad; first compound 0.01 µM) of 0.963 and a relative viability (LC-2-ad; first compound 0.03162 µM) of 0.827. The relative viability (LC-2-ad; first compound 0.1 µM) was 0.804, the relative viability (NCI-H1299; first compound 0.001 µM) was 1.11 and the relative viability (NCI-H1299; first compound 0.01 µM) was 1.17. For the same molecule, the relative viability (NCI-H1299; first compound 0.03162 µM) was 1.19, the relative viability (NCI-H1299; first compound 0.1 µM) was 1.07 and the relative viability (NCI-H1623; first compound 0.001 µM) was 0.789. For the same molecule, the relative viability (NCI-H1623; first compound 0.003162 µM) was 0.815, the relative viability (NCI-H1623; first compound 0.01 µM) was 0.873 and the relative viability (NCI-H1623; first compound 0.03162 µM) was 0.667. For the same molecule, the relative viability (NCI-H1623; first compound 0.1 µM) was 0.791, the relative viability (NCI-H1666; first compound 0.001 µM) was 0.929 and the relative viability (NCI-H1666; first compound 0.003162 µM) was 0.996. The relative viability (NCI-H1666; first compound 0.03162 µM) was 0.911, the relative viability (NCI-H1666; first compound 0.1 µM) was 1.07 and the relative viability (NCI-H1703; first compound 0.001 µM) was 0.337. For the same molecule, the relative viability (NCI-H1703; first compound 0.1 µM) was 0.409.
